From patent EP1779853A2, “9a-azalides as veterinary antimicrobial agents” (Merial Ltd., priority 1997, dated 1999)
≈ marks a conversion by molar mass, not a printed value.

What was measured:
Assay in all cases: MIC determination (culture tube dilution) against veterinary pathogens
Format in all cases: cell-based
A. pleuropneumoniae = details: Actinobacillus pleuropneumoniae, one range summarising both compounds
Procedure: (§1) The antibacterial activity of representative 9a-azalides against a panel of veterinary pathogens was determined by the minimum inhibitory concentration (MIC) method well known in the art. This is done by preparing a series of culture tubes, each containing a medium with a different concnetration of the antimicrobial agent, and inoculating all the tubes with the same organism. The lowest concentration of agent that completely prevents the appearance of turbidity is noted, and this concentration is called the MIC.

E. coli = details: Escherichia coli, one range summarising both compounds
Procedure: as §1

H. somnus = details: one range summarising both compounds
Procedure: as §1

P. multocida = details: Pasteurella multocida, one range summarising both compounds
Procedure: as §1

P. haemolytica = details: Mannheimia haemolytica, one range summarising both compounds
Procedure: as §1

Salmonella spp. = details: one range summarising both compounds
Procedure: as §1

Row | SMILES | MIC (A. pleuropneumoniae) | MIC (E. coli) | MIC (H. somnus) | MIC (P. multocida) | MIC (P. haemolytica) | MIC (Salmonella spp.)
1 | CC[C@H]1OC(=O)[C@H](C)[C@@H](O[C@H]2C[C@@](C)(OC)[C@@H](N)[C@H](C)O2)[C@H](C)[C@@H](O[C@@H]2O[C@H](C)C[C@H](N(C)C)[C@H]2O)[C@](C)(O)C[C@@H](C)CN(C)[C@H](C)[C@@H](O)[C@]1(C)O [4"-deoxy-4"-aminoazithromycin] | 0.062 to 0.5 µg/mL (≈ 0.0829 to 0.668 µM) | 0.5 to 16 µg/mL (≈ 0.668 to 21.4 µM) | 0.062 to 0.25 µg/mL (≈ 0.0829 to 0.334 µM) | 0.125 to 2 µg/mL (≈ 0.167 to 2.67 µM) | 0.125 to 0.5 µg/mL (≈ 0.167 to 0.668 µM) | 1 to 16 µg/mL (≈ 1.34 to 21.4 µM)
2 | CC[C@H]1OC(=O)[C@H](C)[C@@H](O[C@H]2C[C@@](C)(OC)[C@@H](O)[C@H](C)O2)[C@H](C)[C@@H](O[C@@H]2O[C@H](C)C[C@H](N(C)C)[C@H]2O)[C@](C)(O)C[C@@H](C)CN(C)[C@H](C)[C@@H](O)[C@]1(C)O [azithromycin, 9-deoxo-9a-aza-9a-methyl-9a-homoerythromycin A] | 0.062 to 0.5 µg/mL (≈ 0.0828 to 0.668 µM) | 0.5 to 16 µg/mL (≈ 0.668 to 21.4 µM) | 0.062 to 0.25 µg/mL (≈ 0.0828 to 0.334 µM) | 0.125 to 2 µg/mL (≈ 0.167 to 2.67 µM) | 0.125 to 0.5 µg/mL (≈ 0.167 to 0.668 µM) | 1 to 16 µg/mL (≈ 1.34 to 21.4 µM)
